Like-named read-outs stand apart in the source and are kept apart here.
Key:
GSK3β = assay: p-GS level in the inflamed distal colon (Western blot); assay type: in vivo, Sprague-Dawley rats; conditions: oral once daily for 6 days
Protocol: (§1) Experimental colitis was induced in rats as previously described. […] The rats in each group were treated orally once daily, and the medication began three days after the induction of inflammation, and continued for six days. Twenty-four hours after the last medication, the anticolitic effects of drugs were evaluated assessing macroscopic and microscopic indices. Colonic-damage scores (CDS) were assigned using the modified scoring system shown in Supplementary Table S1. Colonic damage was scored using 4 independent observers blinded to the treatment conditions. Myeloperoxidase (MPO) activity was determined in the inflamed distal colon (4 cm) as previously described.
To prepare samples for Western blot analysis, tissue (distal colon) samples (0.2 g) were minced and homogenized in 2.0 mL of pre-chilled radioimmunoprecipitation assay (RIPA) buffer, which was agitated on ice for 0.5 h, and then centrifuged at 10,000× g at 4 °C for 10 min. The centrifuged lysates were subjected to protein quantification using the bicinchoninic acid reagent (Thermo Fisher Scientific, Waltham, MA, USA). […] The Western blot images were quantified using Image Lab software (version 5.2 build 14; Bio-Rad, Hercules, CA, USA). The mean of the quantified values was presented with the Western blot images in the figures (n = 3 for cell experiments, n = 5 for animal experiments).

[1] = Concentration of the conjugates in the blood after oral administration; assay type: in vivo, Sprague-Dawley rats; conditions: equimolar dose, 4, 8, 12 h, Supplementary Figure S4
Protocol: Male Sprague-Dawley rats fasted for 24 h except for water. […] At 4, 8, and 12 h after the oral treatment, the plasma (0.3 mL) was obtained from the blood samples (collected via cardiac puncture) centrifuged at 10,000× g at 4 °C for 10 min. The plasma (0.25 mL) was extracted with EA (0.7 mL), and the organic layer (0.5 mL) was evaporated and dissolved in mobile phase A or B (0.1 mL). After filtration through a membrane filter (0.45 μm), the filtrate (20 μL) was injected to HPLC. To determine the concentrations of SAR and RAS in the blood, MeOH (0.9 mL) was added to the plasma (0.1 mL) and centrifuged at 10,000× g at 4 °C for 10 min. After filtration of the supernatants through a membrane filter (0.45 μm), the filtrate (20 μL) was injected to HPLC.

[2] = RLZ concentration in blood (plasma) after oral administration; assay type: in vivo, Sprague-Dawley rats
Protocol: The plasma (0.25 mL) was extracted with EA (0.7 mL), and the organic layer (0.5 mL) was evaporated and dissolved in mobile phase A or B (0.1 mL). After filtration through a membrane filter (0.45 μm), the filtrate (20 μL) was injected to HPLC. To determine the concentrations of SAR and RAS in the blood, MeOH (0.9 mL) was added to the plasma (0.1 mL) and centrifuged at 10,000× g at 4 °C for 10 min. After filtration of the supernatants through a membrane filter (0.45 μm), the filtrate (20 μL) was injected to HPLC.

[3] = 1-octanol/pH 6.8 buffer; cited from earlier work
[4] = cited from earlier work
DNBS-induced rat colitis = assay: DNBS-induced rat colitis, anticolitic effects; assay type: in vivo, Sprague-Dawley rats
Protocol: as §1
To prepare samples for Western blot analysis, tissue (distal colon) samples (0.2 g) were minced and homogenized in 2.0 mL of pre-chilled radioimmunoprecipitation assay (RIPA) buffer, which was agitated on ice for 0.5 h, and then centrifuged at 10,000× g at 4 °C for 10 min. The centrifuged lysates were subjected to protein quantification using the bicinchoninic acid reagent (Thermo Fisher Scientific, Waltham, MA, USA). SDS-PAGE on a 7.5 or 10% gel was used for Western blot analysis of tissue lysates. To detect glycogen synthase (GS), phosphorylated GS (p-GS), cyclooxygenase (COX)-2, and inducible nitric oxide synthase (iNOS), anti-GS (Santa Cruz Biotechnology, Dallas, TX, USA), anti-p-GS (Cell Signaling Technology, Danvers, MA, USA), anti-COX-2 (sc-365374, Santa Cruz Biotechnology), and anti-iNOS (NOS-2) antibody (sc-7271, Santa Cruz Biotechnology) were used. SuperSignal chemiluminescence substrate (Thermo Fisher Scientific, Waltham, MA, USA) was used to visualize bands. α-Tubulin (Santa Cruz Biotechnology) was used as a loading control. The Western blot images were quantified using Image Lab software (version 5.2 build 14; Bio-Rad, Hercules, CA, USA). The mean of the quantified values was presented with the Western blot images in the figures (n = 3 for cell experiments, n = 5 for animal experiments).
ELISA kits were used to determine the level of CINC-3 and IL-10 in the inflamed distal colon as described previously. The ELISA was performed according to the manufacturer’s instructions.

[5] = Distribution coefficient (log D6.8), 1-octanol/pH 6.8 isotonic phosphate buffer; assay type: physicochemical; conditions: 1-octanol/isotonic phosphate buffer (pH 6.8)
Protocol: To measure distribution coefficients of test compounds in 1-octanol/pH 6.8 isotonic phosphate buffer system, 1-octanol and pH 6.8 isotonic phosphate buffer was pre-saturated with each other. […] Distribution of test compounds in the organic phase/aqueous phase was determined by quantifying the concentration of each test compound in the organic or aqueous phase using a UV-Vis spectrophotometer (Shimadzu, Tokyo, Japan) at 263 nm. The following equation was employed to calculate the distribution coefficients (log D6.8). In the equation, CO is the initial concentration of a compound in the 1-octanol phase or aqueous phase; Cw is the equilibrium concentration of a compound in the aqueous phase; and COc is the equilibrium concentration of a compound in 1-octanol: log D6.8=log(COc/CW)=log(COc/(CO−COc]

[6] = Chemical stability in pH 1.2 and pH 6.8 buffers; assay type: physicochemical; conditions: 0.1 mM, 12 h
Protocol: To test the chemical stabilities of SAR and SGR, the two compounds (0.1 mM) were incubated for 12 h in pH 1.2 HCl-NaCl buffer and pH 6.8 isotonic phosphate buffer, and change in the drug concentrations was monitored using HPLC analysis.

[7] = Incubation in the small intestinal contents of rats; assay type: in vitro ADME; conditions: rat small intestinal contents; for change in concentration in small intestinal contents: 12 h; for release of RLZ in the small intestinal contents: Supplementary Figure S2
Protocol: (§2) Male Sprague-Dawley rats (250–260 g) were euthanized using CO2 gas, collecting the intestinal tract contents separately from the small intestine and cecum. The cecal contents were collected in an atmospheric bag (AtmosBag, Sigma, St. Louis, MO, USA) filled with N2 gas. The contents were suspended in pH 6.8 isotonic phosphate buffer (20%, w/v). To 5 mL of the cecal and small intestinal suspensions, each solution (5 mL) of RAS, SAR, and SGR (2.0 mM) dissolved of pH 6.8 isotonic phosphate buffer was added, and then incubated at 37 °C. Incubation with the cecal contents was conducted in the bag filled with N2 gas. A 0.5 mL portion of the mixtures was transferred to a microtube, followed by centrifugation at 10,000× g at 4 °C for 10 min. Supernatants (0.3 mL) were subjected to extraction with EA (0.3 mL) and subsequent centrifugation at 10,000× g at 4 °C for 7 min. The organic layer (0.2 mL) transferred to a new microtube was evaporated, followed by the addition of mobile phase A (0.2 mL).

[8] = Incubation in the cecal contents of rats (conversion to RLZ); assay type: in vitro ADME, rat; conditions: for conversion to RLZ in cecal contents (in words): 1 mM, 10% cecal contents, anaerobic
Protocol: as §2

Caco-2 cell monolayer = assay: Cell permeability assay using Caco-2 monolayers; assay type: in vitro ADME; conditions: 500 µM apical, up to 24 h, compared with RAS
Protocol: Caco-2 cells (4 × 10^5 per insert) were seeded in Transwell 6-well inserts with a pore size of 0.4 μm (SPL Inc., Houston, TX, USA). DMEM containing 1% penicillin/streptomycin was added to the basolateral (3.0 mL) and apical (insert) compartments (2.0 mL). The cells were grown until the cell monolayer’s transepithelial electrical resistance value (EMD Millipore, Billerica, MA, USA) reached 2000 Ω.cm^2. […] At appropriate time intervals, the drug concentration in the basolateral compartment was determined using HPLC.

[9] = oral once daily for 6 days, ELISA
[10] = SAR L and H doses, dose-dependent, Western blot

SMILES | level of p-GS in the inflamed colon (GSK3β) | conjugate (prodrug) in the blood [1] | level of IL-10 in the inflamed colon (DNBS-induced rat colitis; [9]) | logD at 12 h [5] | change in concentration in buffer solutions [6] | change in concentration in small intestinal contents [7] | conversion to RLZ in cecal contents (in words) [8] | melting point | release of RLZ in the small intestinal contents [7] | further results
O=C(O)c1cc(/N=N/c2nc3ccc(OC(F)(F)F)cc3s2)ccc1O [RAS, reference compound] | substantially diminished | detected | further augmented |  |  |  |  |  |  | peak blood concentration of RLZ relative to that after oral RLZ ([2]; oral, equimolar doses (10 mg/kg RLZ)): approximately one-fifth; distribution coefficient (log D6.8) [3]: 2.1; peak blood concentration of RLZ relative to that after oral RLZ [4]: approximately one-fifth
O=C(O)CCC(=O)N[C@@H](CCC(=O)O)C(=O)Nc1nc2ccc(OC(F)(F)F)cc2s1 [SGR, (N-succinyl-L-glutam-1-yl)riluzole] |  |  |  | -2 | No significant change | No significant change | resistant to cecal conversion of RLZ |  |  | 
N[C@@H](CC(=O)O)C(=O)Nc1nc2ccc(OC(F)(F)F)cc2s1 [AR, N-(L-aspart-1-yl)riluzole] |  |  |  | 0.8 |  |  | conversion percentage to RLZ was lower than that of SAR | 163 °C | released a substantial amount of RLZ | 
N[C@@H](CCC(=O)O)C(=O)Nc1nc2ccc(OC(F)(F)F)cc2s1 [GR, N-(L-glutam-1-yl)riluzole] |  |  |  | 1 |  |  |  |  | released a substantial amount of RLZ | 
O=C(O)CCC(=O)N[C@@H](CC(=O)O)C(=O)Nc1nc2ccc(OC(F)(F)F)cc2s1 [SAR, (N-succinyl-L-aspart-1-yl)riluzole] | substantially diminished | not detectable | further augmented | -2.1 | No significant change | No significant change | readily converted to RLZ in a time-dependent manner | 202 °C (dec.) |  | systemic absorption of RLZ (RLZ in blood, in words) ([2]; oral SAR 19.2 mg/kg): barely detectable; maximal plasma concentration of RLZ relative to oral RAS ([2]; oral, equimolar dose): approximately one-seventh; permeation through Caco-2 cell monolayer (Caco-2 cell monolayer): less efficient than RAS; AR detected during incubation of SAR with the cecal contents ([8]; cecal contents): no AR was detected; MPO activity in the inflamed distal colon (DNBS-induced rat colitis; SAR L and H doses, dose-dependent): lowered; CINC-3 level in the inflamed distal colon (DNBS-induced rat colitis; SAR L and H doses, dose-dependent, ELISA): lowered; COX-2 level in the inflamed distal colon (DNBS-induced rat colitis; [10]): lowered; iNOS level in the inflamed distal colon (DNBS-induced rat colitis; [10]): lowered; colonic damage and inflammation compared with SSZ (DNBS-induced rat colitis; SAR even at lower dose vs SSZ 30 mg/kg): more effective than SSZ; all anticolitic indices compared with RAS (DNBS-induced rat colitis; equimolar dose (equivalent to 10 mg/kg RLZ)): significantly superior to RAS; colonic damage (CDS, H&E staining) (DNBS-induced rat colitis; oral once daily for 6 days, SAR equivalent to 5 (L) and 10 (H) mg/kg RLZ): mitigated the pathological state of the inflamed colon at both doses
